# Key:
# [1] = system: Leishmania donovani; experiment: Antileishmanial activity against amastigote form of Leishmania donovani assessed as parasite growth inhibition; assay type: functional, organism-based
# [2] = system: Trypanosoma cruzi; experiment: Antitrypanosomal activity against intracellular Trypanosoma cruzi amastigote assessed as reduction in parasite growth; assay type: functional, organism-based
# [3] = Selectivity index, ratio of IC50 for cytotoxicity against African green monkey Vero cells to IC50 for antitrypanosomal activity against Trypanosoma cruzi amastigote; assay type: toxicity, cell-based; settings: read-out: Ratio IC50
# [4] = Selectivity index, ratio of IC50 for cytotoxicity against African green monkey Vero cells to IC50 for antileishmanial activity against amastigote form of Leishmania donovani; assay type: toxicity, cell-based; settings: read-out: Ratio IC50
# [5] = system: Trypanosoma brucei brucei; experiment: Antitrypanosomal activity against bloodstream form of Trypanosoma brucei brucei assessed as reduction in parasite growth; assay type: functional, organism-based
# [6] = Selectivity index, ratio of CC50 for cytotoxicity against HEK293T cells to EC50 for antitrypanosomal activity against bloodstream form of Trypanosoma brucei brucei; assay type: toxicity, cell-based; settings: human, read-out: Ratio CC50/EC50
# [7] = Selectivity index, ratio of CC50 for cytotoxicity against human HepG2 cells to EC50 for antitrypanosomal activity against bloodstream form of Trypanosoma brucei brucei; assay type: toxicity, cell-based; settings: read-out: Ratio CC50/EC50
# [8] = system: Trypanosoma cruzi (intracellular amastigotes); experiment: Antiparasitic activity against Trypanosoma cruzi intracellular amastigotes assessed as reduction in cell viability at 50 uM relative to control
# [9] = system: Trypanosoma cruzi (intracellular amastigotes); experiment: as above; remark: listed apart in the source
# [10] = system: Leishmania donovani; experiment: Antileishmanial activity against Leishmania donovani intracellular amastigotes assessed as parasite growth inhibition; assay type: functional, organism-based
# [11] = system: Trypanosoma cruzi; experiment: Antitrypanosomal activity against epimastigote form of Trypanosoma cruzi assessed as reduction in parasite growth; assay type: functional, organism-based
# [12] = system: Leishmania major; experiment: Antileishmanial activity against Leishmania major promastigotes assessed as parasite growth inhibition; assay type: functional, organism-based
# [13] = system: Trypanosoma brucei brucei; experiment: Antitrypanosomal activity against Trypanosoma brucei brucei; assay type: functional, organism-based
# [14] = Selectivity index, ratio of EC50 for cytotoxicity against African green monkey Vero cells to EC50 for antitrypanosomal activity against Trypanosoma brucei brucei; assay type: toxicity, cell-based; settings: read-out: Ratio EC50
# [15] = Selectivity index, ratio of EC50 for cytotoxicity against African green monkey Vero cells to EC50 for antitrypanosomal activity against epimastigote form of Trypanosoma cruzi; assay type: toxicity, cell-based; settings: read-out: Ratio EC50
# [16] = Selectivity index, ratio of EC50 for cytotoxicity against African green monkey Vero cells to EC50 for antileishmanial activity against Leishmania major promastigotes; assay type: toxicity, cell-based; settings: read-out: Ratio EC50
# [17] = system: Leishmania mexicana; experiment: Antileishmanial activity against Leishmania mexicana promastigotes assessed as parasite growth inhibition; assay type: functional, organism-based
# [18] = system: Leishmania amazonensis; experiment: Antileishmanial activity against Leishmania amazonensis promastigotes assessed as parasite growth inhibition; assay type: functional, organism-based
# [19] = system: Trypanosoma cruzi; experiment: In vivo antitrypanosomal activity against Trypanosoma cruzi infected in mouse assessed as fold reduction in parasitemia measured upto 30 days; assay type: functional; settings: time <= 30 day
# [20] = system: Trypanosoma cruzi; experiment: In vivo antitrypanosomal activity against Trypanosoma cruzi infected in mouse assessed as survival rate measured upto 30 days relative to control; assay type: functional; settings: time <= 30 day
# [21] = system: Trypanosoma brucei; experiment: Antitrypanosomal activity against Trypanosoma brucei; assay type: functional, organism-based
# [22] = system: Leishmania amazonensis; experiment: Antileishmanial activity against Leishmania amazonensis intracellular amastigotes assessed as parasite growth inhibition; assay type: functional, organism-based
# [23] = Selectivity index, ratio of CC50 for cytotoxicity against mouse J774.G8 cells to IC50 for antileishmanial activity against Leishmania amazonensis promastigotes; assay type: toxicity, cell-based; settings: read-out: Ratio CC50/IC50
# [24] = system: Trypanosoma brucei rhodesiense; experiment: Antitrypanosomal activity against bloodstream form of Trypanosoma brucei rhodesiense assessed as parasite growth inhibition; assay type: functional, organism-based
# [25] = Selectivity index, ratio of CC50 for cytotoxicity against rat L6 cells to IC50 for antitrypanosomal activity against bloodstream form of Trypanosoma brucei rhodesiense; assay type: toxicity, cell-based; settings: read-out: Ratio CC50/IC50
# [26] = Selectivity index, ratio of CC50 for cytotoxicity against rat L6 cells to IC50 for […] activity against amastigote form of Leishmania donovani; assay type: toxicity, cell-based; settings: read-out: Ratio CC50/IC50
# [27] = Selectivity index, ratio of IC50 for cytotoxicity against rat L6 cells to IC50 for antitrypanosomal activity against bloodstream form of Trypanosoma brucei rhodesiense; assay type: toxicity, cell-based; settings: read-out: Ratio IC50
# [28] = system: Plasmodium berghei; experiment: In vivo antimalarial activity against GFP-transfected Plasmodium berghei ANKA infected in NMRI mouse assessed as reduction in parasitemia at 50 mg/kg/day, ip administered for 4 consecutive days relative to control; assay type: functional
# [29] = system: Plasmodium berghei; experiment: In vivo antimalarial activity against GFP-transfected Plasmodium berghei ANKA infected in NMRI mouse assessed as reduction of parasitaemia at 100 mg/kg/day, po for 4 days relative to control; assay type: functional; settings: 96 h, time 4 day
# [30] = system: Leishmania amazonensis; experiment: Antileishmanial activity against Leishmania amazonensis amastigotes assessed as parasite growth inhibition; assay type: functional, organism-based
# [31] = system: Trypanosoma brucei; experiment: Antitrypanosomal activity against bloodstream form of Trypanosoma brucei assessed as parasite growth inhibition; assay type: functional, organism-based
# [32] = system: Trypanosoma brucei; experiment: In vivo antitrypanosomal activity against Trypanosoma brucei infected in mouse assessed as cured animal rate at 10 mg/kg administered once daily for 7 days relative to control; assay type: functional; settings: time 7 day
# [33] = Inhibition of Trypanosoma brucei CLK1
# [34] = system: Leishmania infantum; experiment: Antileishmanial activity against amastigote stage of Leishmania infantum; assay type: functional, organism-based
# [35] = Selectivity index, ratio of IC50 for cytotoxicity against human MRC5 cells to IC50 for antitrypanosomal activity against bloodstream form of Trypanosoma brucei; assay type: toxicity, cell-based; settings: read-out: Ratio IC50
# [36] = Selectivity index, ratio of IC50 for cytotoxicity against human MRC5 cells to IC50 for antitrypanosomal activity against intracellular Trypanosoma cruzi amastigote; assay type: toxicity, cell-based; settings: read-out: Ratio IC50
# [37] = Selectivity index, ratio of IC50 for cytotoxicity against human MRC5 cells to IC50 for antileishmanial activity against amastigote stage of Leishmania infantum; assay type: toxicity, cell-based; settings: read-out: Ratio IC50
# [38] = system: Trypanosoma cruzi; experiment: Antitrypanosomal activity against Trypanosoma cruzi amastigote; assay type: functional, organism-based; settings: Trypanosoma cruzi
# [39] = system: Trypanosoma brucei rhodesiense; experiment: Antitrypanosomal activity against Trypanosoma brucei rhodesiense bloodstream form
# [40] = system: Trypanosoma cruzi; experiment: Antitrypanosomal activity against trypomastigote form of Trypanosoma cruzi assessed as reduction in parasite growth; assay type: functional, organism-based
# [41] = system: Trypanosoma cruzi; experiment: In vivo antitrypanosomal activity against Trypanosoma cruzi infected in mouse assessed as survival rate measured upto 50 days relative to control; assay type: functional; settings: time <= 50 day
# [42] = system: Leishmania donovani; experiment: Antileishmanial activity against amastigote form of Leishmania donovani HU3 infected in Balb/c mouse assessed as parasite growth inhibition at 30 mg/kg, ip for 5 days relative to control; assay type: functional; settings: HU3, 120 h, time 5 day
# [43] = system: Leishmania donovani; experiment: Antileishmanial activity against Leishmania donovani promastigotes infected in golden hamster assessed as reduction in parasite load in spleen at 14.0 mg/kg administered twice per week for 4 weeks relative to control; assay type: functional; parameters: scale not given: the % may be the effect or the level left
smiles,measurement,setting,value
C/C1=C/C(=O)O[C@H](C(C)(C)C)CCC[C@H](O)CCC[C@H](O)CCC[C@H](O)CCC[C@@H](O)C[C@@H](O)C[C@H](O)CCC[C@@H](O)CCC[C@@H](O)C[C@@H](O)CCCCC1,EC50,[1],3 µM
same,EC50,[2],6.5 µM
same,selectivity ratio,[3],2
same,selectivity ratio,[4],1
C=C1CO[C@H]2/C=C(\C)CC[C@@H]3O[C@@]3(C)CC/C=C(\C)CC[C@@]12O,EC50,[5],5.3 µM
same,selectivity ratio,[6],> 20
same,selectivity ratio,[7],> 20
same,Activity,[8],15.2%
same,Activity,[9],15.2%
C=C(C)[C@H]1[C@H]2[C@@H](OC(C)=O)C[C@@H](C)[C@@H]3C(OC)C=C(C)[C@@]213 (some centres undefined),EC50,[10],5 µM
CCOC1C[C@H](CCCCOCc2ccccc2)O[C@H](Cn2cc([C@@H]3CCC[C@H](CCCCOCc4ccccc4)O3)nn2)C1 (some centres undefined),EC50,[11],12.7 µM
same,EC50,[12],15.3 µM
same,EC50,[13],5.1 µM
same,selectivity ratio,[14],100
same,selectivity ratio,[15],39
same,selectivity ratio,[16],33
C=C1C(=O)O[C@@H]2[C@H]1CC[C@H](C)[C@@H]1CCC(=O)O[C@@]21C,EC50,[11],2.3 µM
same,EC50,[2],3.4 µM
same,EC50,[17],4.5 µM
same,EC50,[18],5.7 µM
same,fold change (FC),[19],2
same,Survival,[20],20%
C/C=C/[C@]1(C)C[C@@](/C=C(\C)C[C@@H](CC)CC/C=C/CC)(CC)OO1,EC50,[21],5 µM
C=C1CC[C@@H](OC(C)=O)[C@H]2CC=C3[C@](C)(CC[C@]3(O)C(C)C)C[C@]12O,EC50,[18],5.5 µM
same,EC50,[22],18 µM
same,selectivity ratio,[23],93
NC1=N[C@]2([C@H](O)N1)[C@@H](Cl)[C@H](CCl)[C@H]1CN3C(=O)c4cc(Br)c(Br)n4[C@@H]4NC(N)=N[C@@]43[C@@H]12,EC50,[24],0.8 µM
same,EC50,[1],1.9 µM
same,EC50,[2],120 µM
same,selectivity ratio,[25],10
same,selectivity ratio,[26],4
O=C(O)c1ccc2c(n1)C(=O)C1=C(C2=O)S(=O)(=O)CCN1 [ACIDIATHIAZONE A],EC50,[24],3.1 µM
same,selectivity ratio,[27],50
same,inhibition in vivo at 50 mg/kg/day,[28],85%
same,inhibition in vivo at 100 mg/kg/day,[29],45%
CC(C)[C@@H](C)/C=C/[C@@H](C)[C@H]1CC[C@@H]2[C@]1(C)CC[C@H]1[C@]23C=C[C@]2(C[C@@H](O)CC[C@]12C)OO3 [ERGOSTEROL PEROXIDE],EC50,[11],16.8 µM
same,EC50,[18],13.9 µM
same,EC50,[30],4 µM
COc1cc(O)c2c(c1)[C@H]1O[C@@H]1C[C@H](O)[C@H](O)C(=O)/C=C\C[C@H](C)OC2=O [HYPOTHEMYCIN],EC50,[31],0.17 µM
same,Activity,[32],33%
same,IC50,[33],0.15 µM
COc1c(O)cc2oc3cc(O)c(CC=C(C)C)c(O)c3c(=O)c2c1CC=C(C)C [MANGOSTIN],EC50,[2],8.9 µM
same,EC50,[31],7.9 µM
same,EC50,[34],8 µM
same,selectivity ratio,[35],0.95
same,selectivity ratio,[36],0.84
same,selectivity ratio,[37],0.93
Cn1c2nc3ccccc3c-2cc2ccccc21 [NEOCRYPTOLEPINE],EC50,[1],49.5 µM
same,EC50,[38],2 µM
same,EC50,[39],2.2 µM
C=C1C(=O)O[C@@H]2[C@H]1CC[C@H](C)[C@]1(CCC(=O)O1)[C@@]2(C)O [PSILOSTACHYIN A],EC50,[11],4.3 µM
same,EC50,[40],12.5 µM
same,EC50,[17],0.42 µM
same,fold change (FC),[19],1.5
same,Survival,[41],100%
O=c1c(O)c(-c2ccc(O)c(O)c2)oc2cc(O)cc(O)c12 [QUERCETIN],EC50,[5],25.8 µM
same,EC50,[1],3.3 µM
same,inhibition in vivo at 30 mg/kg,[42],15%
same,Activity,[43],90%

# Reference: ChEMBL document CHEMBL5257038, “Active Natural Product Scaffolds against Trypanosomatid Parasites: A Review” (J Nat Prod, 2018)
